For experiment [1], the system named is DNA from LT Escherichia coli. Type of experiment: biochemical. Particulars: for maximum concentration of feces at which amplification bands are observed, relative to no addition of polyamine (J) / appearance of amplification bands: polyamine 1 mM; for maximum concentration of feces at which amplification bands are observed, relative to no addition of polyamine (J): 40 cycles; for reduction of inhibition of PCR due to feces (summary): human feces samples; for appearance of amplification bands: human feces. The method, then:
A sample was obtained by making an 8% suspension of human feces in TE buffer and subjecting it to a heat treatment at 95° C. for 10 minutes. […] The detection was carried out as in Experiment No. 1.

Experiment [2] has as its system HIV DNA. Description: PCR with human white blood cells, 2 mM polyamine, varying number of HIV DNA copies (Experiment No. 2). Type of experiment: biochemical, HIV-1. Particulars: polyamine 2 mM; for number of HIV DNA copies detected (lowest): 40 cycles, copies/tube. The method, then:
White blood cells were obtained by taking 14 μl (7×10^4 WBC) of human blood, centrifuging it and removing therefrom the supernatant. Various polyamines (2 mM), HIV DNA (1000, 100 10 and 0 copies/tube) and PCR core solution were added to the white blood cells thus collected for carrying out PCR (total 50 μl ). The same PCR core solution was used as in Experiment No. 1. The PCR was carried out for 40 cycles under the same conditions as in Experiment 1, and the amplification detection was carried out as in Experiment No. 1.

The subject of a further experiment is DNA. In words: PCR with soil or tobacco leaf extract and spermidine (Example No. 3). It is filed as biochemical. Particulars: extract from soil or tobacco leaf (Groups B and C, Lanes 2-4). As to the method:
Used as the sample was 100 mg of sandy soil from a rice field or 100 mg of homogenized tobacco leaf. The sample was dissolved with 0.1 M EDTA and 0.1% SDS, purified with weakly negative ion-exchange resin (DEAE-Sepharose, fast flow (Pharmacia)), and eluted with 400 μl of 10 mM of tris-HCl (pH 7.0) containing 1 M NaCl. The extract which was colored light brown or light green indicated existence of much contamination of impurities for rough purification material. PCR was carried out after polyamine and PCR core solution were added to the extract. PCR core solution was prepared by removing KCl from the core solution used in Example No. 1. The amount of the PCR core solution was 24 μl, and 3 μl each of DNA-containing extract and spermidine solution was added thereto. PCR and detection of amplified DNA was carried out as in Example No. 1.
In FIG. 5, A indicates a positive control group containing only DNA, B indicates a group with soil extract mixed thereto, and C indicates a group with a tobacco leaf extract mixed thereto. The final concentration of polyamine was zero in Lane 1, 0.5 mM in Lane 2, 1 mM in Lane 3, 2 mM in Lane 4, 4 mM in Lane 5 and 8 mM in Lane 6. Lane M indicates a molecular weight marker.

In experiment [3] the test system is β-globin coding region of the mouse. Description: PCR on white blood cells of mouse blood added to human blood, with spermidine (Example No. 2). Type of experiment: biochemical. Particulars: spermidine 2 mM, no purification of DNA. As to the method:
Used as the sample was 23 μl of human blood (with 6000 white blood cells/microliter) into which 5 μl of mouse blood, diluted step-wise with a phosphate buffer, was added. After the sample was subjected to a lysis process of red blood cells, the white blood cells were precipitated by centrifugation and the supernatant was removed. Polyamine and PCR core solution were added to the precipitated white cells. The primers for the PCR were oligonucleotide (P3, sequence number=3) homologous to plus-chain and oligonucleotide (P4, sequence number=4) homologous to minus-chain, which are located in the β-globin coding region of the mouse and what gives 174 bp PCR products: where
The same PCR core solution was used as in Example No. 1 except that the primers were P3 and P4. The total amount of the PCR reaction solution was 100 μl, and 10 μl of spermidine solution (final concentration: 2 mM) was added. PCR and detection of amplified DNA were carried out as in Example No. 1. […] If polyamine is added (Group A), by contrast, the inhibition of the amplification reaction is effectively removed, and the presence of PCR products can be detected if there are as few as about ten white blood cells of the mouse without any purification of DNA.

Experiment [4] relates to genomic DNA purified from cotton leaves. Particulars: DNA isolated from plants; report by Wan and Wilkins; cited from earlier work.
The subject of experiment [5] is HIV DNA. Description: PCR with human white blood cells, varying polyamine concentration (Experiment No. 1). Type of experiment: biochemical, HIV-1. The method, then: White blood cells were obtained by taking 14 μl (7×10^4 WBC) of human blood, centrifuging it and removing therefrom the supernatant. Various kinds of polyamine, HIV DNA (100 copies/tube) and PCR core solution were added to the white blood cells thus collected for carrying out PCR (total 50 μl).
After a preheating process of 4 minutes at 94° C., the PCR was carried out for 50 cycles under the conditions of 94° C. for 30 seconds, 60° C. for 1 minute and 72° C. for 1 minute, followed by a polymerization process at 72° C. for 7 minutes. After the PCR was completed, DNAs were detected by electrophoresis with 3% agarose gel containing TAE buffer (40 mM Tris-acetate; 1 mM EDTA, pH 8.0) with 0.5 μg/ml etidium bromide by using 5 μl of the reaction mixture.
and the numerals (1-7) in FIG. 6 indicate the final concentration of polyamine as follows: […]

“Also recorded” adds a separate entry of the source.

Turning to `NCCN` [A, Ethylenediamine], the “maximum concentration of feces at which amplification bands are observed, relative to no addition of polyamine (J)” value in experiment [1] came to 4 times. Further, the “number of HIV DNA copies detected (lowest)” value (from here on “number … (lowest)”) in the experiment on HIV DNA [2] came out at 10 copies.

`NCCCCN` [C, Putrescine]: in experiment [1], the “reduction of inhibition of PCR due to feces (summary)” value (“reduction of inhibition of PCR due” below) is given as “hardly any effect” and the “maximum concentration of feces at which amplification bands are observed, relative to no addition of polyamine (J)” value is recorded as “twice as large”. Besides, in the experiment with HIV DNA [2], the “number … (lowest)” value came to 10 copies.

Consider `NCCNCCN` [D, Diethylenetriamine], for which, in experiment [1], the “maximum concentration of feces at which amplification bands are observed, relative to no addition of polyamine (J)” value stood at 8 times; the “appearance of amplification bands” value is “brighter and thicker amplification bands than E”. In addition, in the experiment on HIV DNA [2], the “sensitivity relative to E” value was “about 10 times” and the “number … (lowest)” value is 10 copies.

As to `NCCCCNCCCN` [E, Spermidine], the “polyamine concentration at which PCR products can be detected” value with DNA lay in the range of 0.5 to 2 mM. In addition, in experiment [3], the “number of white blood cells of the mouse at which PCR products can be detected” value was “about ten”. The optimum concentration in experiment [4] is 0.2 to 1 mM. The “maximum concentration of feces at which amplification bands are observed, relative to no addition of polyamine (J)” value in experiment [1] was determined as 8 times. Further, the amplification entry in the experiment on HIV DNA [5] (polyamine concentration 0.25 mM, human blood) is recorded as “No amplification”.

With `NCCNCCNCCN` [F, Triethylenetetramine], in experiment [1], the “reduction of inhibition of PCR due” value is recorded as “good results” and the “maximum concentration of feces at which amplification bands are observed, relative to no addition of polyamine (J)” value came out at 16 times. The “number … (lowest)” value with HIV DNA [2] is on record as 10 copies.

As to `NCCCNCCCCNCCCN` [G, Spermine], in experiment [1], the “reduction of inhibition of PCR due” value is “hardly any effect”; the “maximum concentration of feces at which amplification bands are observed, relative to no addition of polyamine (J)” value was 4 times; the “appearance of amplification bands” value is reported as “only thin amplification bands”. Moreover, the “number … (lowest)” value in the experiment with HIV DNA [2] is reported as “could not be detected”. In addition, the “effect on PCR-inhibiting substances derived from blood” value in the experiment with HIV DNA [5] (polyamine 0.125-8 mM, human white blood cells, 100 copies HIV DNA/tube, 50 cycles) is recorded as “hardly any effect; also recorded: no such effect was observed”.

Take `NCCNCCNCCNCCN` [H, Tetraethylenepentamine]: the “reduction of inhibition of PCR due” value in experiment [1] is recorded as “good results”. For the same molecule, the “number … (lowest)” value in the experiment on HIV DNA [2] was found to be 10 copies.

With Trimethylenediamine [B], in experiment [1], the “reduction of inhibition of PCR due” value is “hardly any effect” and the “maximum concentration of feces at which amplification bands are observed, relative to no addition of polyamine (J)” value is on record as “twice as large”. The “number … (lowest)” value with HIV DNA [2] came out at 10 copies.
